Experimental data: ChEMBL document CHEMBL1159316, “Bioactive saponins from Acacia tenuifolia from the suriname rainforest” (J Nat Prod, 2002)
In brackets after ≈: the same amount, converted by molar mass.

How the values were obtained:
Saccharomyces cerevisiae [1] = experiment: Antifungal activity against Saccharomyces cerevisiae 1140; assay type: functional
Saccharomyces cerevisiae [2] = experiment: Antifungal activity against Saccharomyces cerevisiae Sc7; assay type: functional
A2780 = experiment: Cytotoxicity against human A2780 cells; assay type: functional, cell-based
Saccharomyces cerevisiae [3] = experiment: Antifungal activity against Saccharomyces cerevisiae 1353; assay type: functional
Saccharomyces cerevisiae [4] = experiment: Antifungal activity against Saccharomyces cerevisiae 1138; assay type: functional
M109 = experiment: Cytotoxicity against mouse M109 cells; assay type: functional, cell-based

Compound | IC12 (Saccharomyces cerevisiae [1]) | IC12 (Saccharomyces cerevisiae [2]) | IC50 (A2780) | IC12 (Saccharomyces cerevisiae [3]) | IC12 (Saccharomyces cerevisiae [4]) | IC50 (M109)
CC(=O)N[C@H]1[C@H](O[C@H]2CC[C@]3(C)[C@H]4CC=C5[C@@H]6CC(C)(C)[C@@H](OC(=O)/C=C/c7ccccc7)C[C@]6(C(=O)O)[C@H](O)C[C@@]5(C)[C@]4(C)CC[C@H]3C2(C)C)O[C@H](CO[C@@H]2OC[C@H](O)[C@H](O)[C@H]2O[C@@H]2OC[C@@H](O)[C@H](O)[C@H]2O)[C@@H](O)[C@@H]1O [ACACIOSIDE B] | 220 µg/mL | 280 µg/mL | 13.5 µg/mL (≈ 12.4 µM) | 220 µg/mL | 150 µg/mL | –
CC(=O)N[C@H]1[C@H](O[C@H]2CC[C@]3(C)[C@H]4CC=C5[C@@H]6CC(C)(C)CC[C@]6(C(=O)O)CC[C@@]5(C)[C@]4(C)CC[C@H]3C2(C)C)O[C@H](CO[C@@H]2OC[C@H](O)[C@H](O)[C@H]2O[C@@H]2OC[C@@H](O)[C@H](O)[C@H]2O)[C@@H](O)[C@@H]1O [ALBIZIATRIOSIDE A] | 35 µg/mL | 30 µg/mL | – | 35 µg/mL | 30 µg/mL | 1 µg/mL (≈ 1.08 µM)
CC(=O)N[C@H]1[C@H](O[C@H]2CC[C@]3(C)[C@H]4CC=C5[C@@H]6CC(C)(C)[C@@H](OC(=O)/C=C/c7ccccc7)C[C@]6(C(=O)O)[C@H](O)C[C@@]5(C)[C@]4(C)CC[C@H]3C2(C)C)O[C@H](CO[C@@H]2OC[C@H](O)[C@H](O)[C@H]2O[C@@H]2OC[C@H](O)[C@H](O)[C@H]2O)[C@@H](O)[C@@H]1O [ACACIOSIDE C] | 215 µg/mL | 275 µg/mL | 13 µg/mL (≈ 12 µM) | 220 µg/mL | 160 µg/mL | –
CC(=O)N[C@H]1[C@H](O[C@H]2CC[C@]3(C)[C@H]4CC=C5[C@@H]6CC(C)(C)CC[C@]6(C(=O)O)CC[C@@]5(C)[C@]4(C)CC[C@H]3C2(C)C)O[C@H](CO[C@@H]2OC[C@H](O)[C@H](O)[C@H]2O[C@@H]2OC[C@H](O)[C@H](O)[C@H]2O)[C@@H](O)[C@@H]1O | 40 µg/mL | 45 µg/mL | – | 30 µg/mL | 25 µg/mL | 1 µg/mL (≈ 1.08 µM)
